The values that follow come from patent US5583198A, “Amino acids, peptides or derivatives thereof coupled to fats” (Commonwealth Scientific and Industrial Research Organization, priority 1989, dated 1996).

The test system of data set [1] is RD10 cells (B-cell lymphoma). As to conditions: under these conditions; cited from earlier work.
In data set [2] the target is T1, TPCK trypsin (Bos taurus, UniProt P00760).
T1 sequence (P00760 24-246): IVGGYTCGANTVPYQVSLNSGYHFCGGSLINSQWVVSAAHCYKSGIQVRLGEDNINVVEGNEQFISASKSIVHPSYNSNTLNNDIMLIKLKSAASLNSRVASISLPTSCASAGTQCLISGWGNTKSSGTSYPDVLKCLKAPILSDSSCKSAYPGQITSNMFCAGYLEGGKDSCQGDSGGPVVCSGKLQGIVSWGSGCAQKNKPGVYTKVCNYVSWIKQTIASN
Put plainly: Protease treatment with trypsin (hydrolysis followed by HPLC). In kind it is biochemical. Particulars: 0.2M ammonium hydrogen carbonate, 37° C., enzyme/substrate 1:50; product Z-Leu-Arg-OH. As to the method: (§1) Z-Gly-TRIS and Z-Ala-TRIS were incubated with papain, and Z-Leu-Arg-TRIS with trypsin, to test that the action of proteolytic enzymes could regenerate the starting compounds Z-Gly-OH, Z-Ala-OH and Z-Leu-Arg-OH respectively.
b) Trypsin. Z-Leu-Arg-TRIS was incubated at a concentration between 2 and 10 mg/ml in 0.2M ammonium hydrogen carbonate. Freshly prepared TPCK trypsin (1 mg/ml in water) was added to the solution giving a final enzyme/substrate ratio of 1:50. Samples were incubated at 37° C. and aliquots examined by reverse phase HPLC. Additional amounts of enzyme were added as required.

Data set [3] concerns the target T2, papain (Carica papaya, UniProt P00784).
T2 construct: purchased Sigma
T2 sequence (P00784 134-345): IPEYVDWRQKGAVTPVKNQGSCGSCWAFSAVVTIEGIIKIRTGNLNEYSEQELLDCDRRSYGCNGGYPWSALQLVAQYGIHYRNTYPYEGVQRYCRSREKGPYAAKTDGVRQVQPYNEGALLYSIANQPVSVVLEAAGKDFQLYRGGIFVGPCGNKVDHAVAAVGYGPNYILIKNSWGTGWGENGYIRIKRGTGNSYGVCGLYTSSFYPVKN
Nature of the data set: Protease treatment with papain (hydrolysis followed by HPLC). Format: biochemical. As to conditions: phosphate buffer pH 6.5, enzyme/substrate 1:50, HPLC monitoring; main product Z-Ala-OH / Z-Gly-OH. As to the method:
as §1
50 ul of a suspension of papain (25 mg/ml, Sigma) was incubated with 20 mM aqueous solution of EDTA (50 ul); 1 Molar solution of mercaptoethanol (25 ul); 50 mM triethylamine (25 ul); and water (100 ul) at 37° C. for 30 min.
a) Papain. Z-Ala-TRIS in 50 mmolar phosphate buffer pH 6.5 (650 ul), 20 mM ethylene-diamise-tetra-acetic acid (100 ul) and water to 1 ml. Activated papain (5 mg/ml) was added to a final enzyme/substrate ratio of 1:50. The reaction was followed by HPLC on C18 reverse phase columns and the hydrolysis product identified by co-chromatography with standards. Blanks were incubated as above using water instead of enzyme solution.

For data set [4], the system named is RD10 cells (B-cell lymphoma). Put plainly: 3H-thymidine incorporation (mitogenic effect) in RD10 cells. Format: cell-based. As for the experimental part: (§2) ^3 H-thymidine incorporation experiments were carried out in Linbro-Titertek microtitre plates (Flow Laboratories, Inc., U.S.A.) following the method of L. Bradley in "Selected Methods of Cellular Immunology (1980) Eds. B. B. Mishell and S. M. Shiigi; Publisher. W. H. Freeman and Co., U.S.A. pp156. The tests were carried out externally by Dr. D. Rathjen of Peptide Technology Ltd., Dee Why, N.S.W.
1. RD10; a B-cell lymphoma (obtained from the Centre for Immunology, Sydney University, Sydney, NSW.
(§3) RD10 cells (at a cell density 5×10^5 /ml, 100 ul/well) were cultured for 20 hours at 37° C. with 5% CO2 in RPMI 1640 medium, supplemented with 10% Fetal Calf. Serum. Samples to be tested were mixed and sonicated with this medium at a concentration of 5000, 500.50 and 5 ug/ml and 100 ul aliquots added to the cells. The cells were pulsed with 0.5 uCi/well of ^3 H-thymidine and the plates incubated for four more hours before harvesting (Titertek Skatron harvester, Lier, Norway). Incorporated radioactivity was measured by liquid scintillation counting. All assays were performed in triplicate.

Data set [5] has as its system U937 cells (human monocyte-like histiocytic lymphoma). Put plainly: 3H-thymidine incorporation (mitogenic effect) in U937 cells. Format: cell-based. As to the method:
as §2
2. U937; a human monocyte-like3 histiocytic lymphoma (source: American Tissue Culture Collection).
as §3

As for phytohaemagglutinin, the “3H-thymidine uptake: increase in cell proliferation (known mitogen, for comparison)” value in data set [1] is 5-10 fold.

Regarding `CC(C)C[C@H](NC(=O)OCc1ccccc1)C(=O)N[C@@H](CCCNC(=N)N)C(=O)NC(CO)(CO)CO` [Z-Leu-Arg-TRIS], in data set [2], the “enzymatic hydrolysis by trypsin” value is “hydrolyzed slowly”.

For the molecule `CC(NC(=O)OCc1ccccc1)C(=O)NC(CO)(CO)CO` (stereo not drawn) [Z-Ala-TRIS], the “enzymatic hydrolysis by papain” value in data set [3] is given as “hydrolysed by papain, albeit very slowly”.

For `O=C(CNC(=O)OCc1ccccc1)NC(CO)(CO)CO` [Z-Gly-TRIS], the “enzymatic hydrolysis by papain” value in data set [3] was “hydrolysed by papain, albeit very slowly”.

Take `CCCCCCCCCCCCCCCC(=O)OCC(COC(=O)CCCCCCCCCCCCCCC)(COC(=O)CCCCCCCCCCCCCCC)NC(=O)C(C)N` (stereo not drawn) [Ala-TRIS-Tripalmitate]: the “3H-thymidine uptake response compared with Z-Ala-TRIS-Tripalmitate” value in data set [4] is on record as “slightly diminished response”. Besides, in data set [5], the Thymidine incorporation entry was “slightly diminished responses”.

Take `CCCCCCCCCCCCCCCC(=O)OCC(COC(=O)CCCCCCCCCCCCCCC)(COC(=O)CCCCCCCCCCCCCCC)NC(=O)C(C)NC(=O)OCc1ccccc1` (stereo not drawn) [Z-Ala-TRIS-Tripalmitate, Z-Ala-TRIS-TRIPALMITATE]: the “3H-thymidine uptake: increase in cell proliferation compared to control” value in data set [4] (20 hours culture, 4 hours pulse) is 3-4 fold. Besides, in data set [5], the Thymidine incorporation result is “close to control”. For the same molecule, the cytotoxic effects entry in data set [5] (at higher concentrations) is listed as “slight cytotoxic effects”.
